From ChEMBL document CHEMBL1127853, “Novel synthesis of cyclic amide-linked analogues of angiotensins II and III” (J Med Chem, 1994) come the findings set out here.

Experiment [1] is filed under the species Rattus norvegicus. The experiment is described as follows: Tested for antagonist activity in rat uterus with respect to human angiotensin II as reference. The class given is functional. Particulars: read-out: pA2 (converted).
The species entered for experiment [2] is Rattus norvegicus. The experiment is described as follows: Tested for agonist activity in rat uterus with respect to human angiotensin II. The format is functional.

Molecules are shown by their SMILES. Where a SMILES comes first, the peptide text is derived from it.

`CC[C@H](C)[C@@H]1NC(=O)[C@H](Cc2ccc(O)cc2)NC(=O)[C@H](Cc2ccccc2)NC(=O)[C@@H]2CCCN2C(=O)[C@H](Cc2c[nH]cn2)NC1=O` (cyclo(FYIHP)) [listing 1 of 2 here]: the Kb in experiment [1] was greater than 10 µM.
With `CC[C@H](C)[C@@H]1NC(=O)[C@H](Cc2ccc(O)cc2)NC(=O)[C@H](Cc2ccccc2)NC(=O)[C@@H]2CCCN2C(=O)[C@H](Cc2c[nH]cn2)NC1=O` (cyclo(FYIHP)) [listing 2 of 2 here], in experiment [2], the Agonist activity is given as less than 0.1%.
